US20160340683A1, “NANOCARRIER BASED PLANT TRANSFECTION AND TRANSDUCTION” (HER MAJESTY THE QUEEN IN RIGHT OF CANADA AS REPRESENTED BY …, priority 2007, published 2016)
Entries after “also recorded” stand apart in the source; their conditions may differ. fluorescein = fluorescein label at the N-terminus

Key:
[1] = system: root tip, leaf tip, leaf base and coleoptile; conditions: 5 μM fluorescently labeled peptide
Procedure: Triticale seeds were washed with detergent and grown on moist cotton for one week. The root tip, leaf tip, leaf base and coleoptile were excised and incubated with 5 μM of fluorescently labeled pVEC, scrambled pVEC and transportan.

immature embryos [2] = assay: Fluorimetry analysis of relative fluorescence uptake by embryos; format: cell-based, Triticale cv AC Alta; conditions: permeabilized and non-permeabilized embryos
Procedure: (§1) The embryos were isolated from spikes two weeks post-anthesis (scutellum diameter 1-2 mm). The immature seeds were surface sterilized with 70% ethanol for 30 s followed by treatment with 10% hypochlorite (Chlorex) and a drop of Tween 20, 3 min. Four washings of 1 min each were given with sterile water. The embryos were hand dissected under sterile conditions. Isolated embryos were placed on GEM medium (Eudes et al, 2003) for 24 h in dark at room temperature prior to CPP translocation studies.
Isolated and sterilized embryos (20-25) were imbibed in total volume of 420 μl permeabilization buffer (15 mM sodium chloride, 1.5 mM sodium citrate, pH 7.1) containing cellular permeabilization agent toluene/ethanol (1:4) in 1:20 ratio with permeabilization buffer. To this 2.1 μl of 1 mM fluoresceinated CPP was added to give a final concentration of 5 μM. […] Embryos were washed two times with permeabilization buffer and subjected either for fluorescence microscopy or spectrofluorimetric analysis.
For fluorimetric analysis, the embryos were treated with 500 μl of 1% Triton X-100 (prepared in permeabilization buffer), 30 min, at 4° C. The supernatant was collected in a fresh tube and relative fluorescence uptake by the embryos with different CPPs was estimated by fluorimeter (Biorad, Versafluor, USA Excitation 490/Emission 520).

isolated microspores = assay: Uptake of fluoresceinated Tat by isolated microspores; format: cell-based; conditions: no permeabilization
Procedure: However, permeabilization is not necessary for all cell types. FIG. 2 illustrates the uptake of fluoresceinated Tat by isolated microspores.
Isolated microspores were prepared as described by Amundsen and Eudes, 2005.

immature embryos [3] = assay: Translocation of fluoresceinated CPPs in zygotic embryos, fluorescence microscopy; format: cell-based, Triticale cv AC Alta
Procedure: as §1
Isolated and sterilized embryos (20-25) were imbibed in total volume of 420 μl permeabilization buffer (15 mM sodium chloride, 1.5 mM sodium citrate, pH 7.1) containing cellular permeabilization agent toluene/ethanol (1:4) in 1:20 ratio with permeabilization buffer. To this 2.1 μl of 1 mM fluoresceinated CPP was added to give a final concentration of 5 μM. In negative controls, the embryos were treated with FITC-dextran sulphate or M-Tat. The embryos were incubated in the permeabilization mix for 1 h in dark at room temperature, followed by two washings with permeabilization buffer. The embryos were then treated with trypsin:EDTA (0.25% solution, Sigma-Aldrich) in 1:2 ratio with permeabilization buffer for 5 min at room temperature to remove free peptide molecules. Embryos were washed two times with permeabilization buffer and subjected either for fluorescence microscopy or spectrofluorimetric analysis.

Triticale microspores = assay: DNA-protein co-delivery in microspores, GUS histochemical assay of embryos; format: cell-based; conditions: 2 months after transfection
Procedure: Triticale tillers for microspore isolation were kept in the refrigerator (4° C.) for 3 weeks with their bases in distilled water and their heads wrapped in aluminum foil. After 3 weeks±3 days, the mid to late uninucleate microspore stage was verified from a median floret using acetocarmine staining prior to extraction. Isolated microspore was carried in Triticale as published in Eudes and Amundsen (2005) for obtaining purified microspore suspension adjusted to 2.5×10^5 cells per ml of NPB99 medium.
The plasmid (pAct-1 GUS, ˜7.2 kb) was linearized with PstI restriction enzyme and DNA was purified by PCR product purification kit (QIAquick, Qiagen, USA). The GUS DNA was delivered following 7 different treatments (T). […]

[4] = system: isolated microspores of Triticale (variety Sunray); assay: CPP delivery of GUS enzyme into isolated microspores, GUS staining; format: cell-based; conditions: GUS enzyme cargo:CPP 1:4, 1 hour at 37° C., three repeats
Procedure: Triticale line Sunray grown in a growth cabinet with a photoperiod of 19 h day (intensity 300 μE m-2 s-1), and temperature 18-15° C. (day-night) with a relative humidity at about 70% was used as the donor plant material. The plants were fertilized every 2 weeks (20-20-20, 200 ppm) and treated with 2.5 ml I-1 Tilt™ (propiconazole, Syngenta) during the tillering stage and Intercept™ (0.004 g per litre of soil, Imidacloprid, Bayer) once sufficient root development was established. The first 10 tillers from each pot were harvested when the spike was at 3-4 cm, depending on the crop, from emergence from the boot. These tillers (to be used for microspore isolation) were subjected to pre-treatment in a refrigerator (4° C.) for 21 days with their bases in distilled water and their heads wrapped in aluminum foil. After 21±3 days of pre-treatment, the spikes were excised from their tillers and after an evaluation of their general appearance, only the most homogenous spikes were used. After confirming microspores at mid to bi-nucleate stage from a median floret, using acetocarmine staining, the tillers were processed for extraction.
Awns were removed with scissors in a laminar flow hood. Eight-fourteen spikes were used for microspore isolation. They were sterilized with 10% bleach (5.25% sodium hypochlorite) for 3 min followed by rinsing in sterile double distilled water four times of 1 min each with constant agitation. Outer glumes were removed and florets from all the spikes were aseptically dissected and transferred to a sterile and refrigerated 110 ml Warring blender cup (VWR international, #58983-093) containing 50 ml filter sterilized extraction buffer at 4° C. Florets were then blended twice for 7 s at low speed (18000 rpm). The slurry was then poured through a 1 mm sieve followed by pouring through a 100 μm sterile mesh (VWR International, #CA21008-950) into two 50 ml centrifuge tubes (25 ml each). The blender cup was rinsed with 50 ml extraction buffer at 4° C. and poured through the 100 μm mesh and was added to the first aliquot in the 50 ml tubes. The cells were then pelleted by centrifugation (100×g for 5 min at 4° C.) using a swinging bucket rotor. After pouring off the supernatant, the microspore-containing pellets were pooled together in one 50 ml tube and re-suspended in 50 ml cold extraction buffer. The cells were pelleted again with centrifugation (100×g for 5 min at 4° C.), the supernatant poured off and the pellet was transferred to a 15 ml tube. After re-suspending the pellet in CIMC Wash Buffer supplemented with 10 microM SS-31 peptide, it was subjected to wash and centrifugation using the above conditions. The supernatant was removed and the pellet was re-suspended in CIMC Wash buffer and centrifugation was repeated as above. The pellet was then suspended in 7 mL of 20% maltose at 4° C., layered with 1 mL of CIMC wash buffer and was centrifuged at 100 g for 13 min at 4° C. A band of microspores formed at the interface was collected in a new 15 ml tube. The cells were diluted with CIMC wash solution and subsequently collected by centrifugation at 150 g for 5 min. The supernatant was removed and the cells were finally suspended in a total volume of 1.4 ml of appropriate solution. After counting the cells using a haemocytometer, aliquots of 100,000 cells in 200 μl volume were prepared in 2 ml microcentrifuge tubes to be ready for transduction.
Peptide stock solutions were made in water at 1 μg/μl concentration. CPP (Nanocarrier) and GUS enzyme (cargo) were first prepared in separate microcentrifuge tubes. A total of 4 μg of CPP was prepared in sterile water to a final volume of 100 μl. Similarly, 1 μg of GUS enzyme was added to sterile water to a final volume of 100 μl. The contents of the two tubes were mixed together giving a ratio of 1:4 protein cargo:CPP. The complex was incubated for 30 min at room temperature (RT). Chariot (PAP1) protein delivering reagent was used as a positive control in the experiments. […]

[5] = system: scutellum and somatic embryos of triticale; assay: CPP delivery of mCherry protein, confocal microscopy; format: cell-based; conditions: mCherry 1 μM with 60 μM CPP, overnight at RT
Source text: The fluorescent mCherry protein was chosen as the protein, while scutellum (dissected out of immature caryopses) and isolated microspore culture-derived somatic embryos of triticale were used as choice of tissue. Both scutellum and somatic embryos are amenable to tissue culture and can undergo somatic embryogenesis to regenerate green plants providing a direct means to obtain modified plants following a biocompatible CPP induced transduction. Scutellum is representative of a diploid tissue while microspore culture derived somatic embryos is a haploid tissue.
The protein:CPP complex was prepared by individually mixing mCherry protein (1 μM) with 60 μM of the 3 CPPs. Both scutellum and somatic embryos of triticale were treated with these different complex formulations overnight at RT. […] The red fluorescent signal was detected by confocal microscopy within both scutellum and somatic embryo cells.

Substance	Average Transduction Efficiency [4] [%]	Delivery of mCherry inside the cells, red fluorescent signal [5]	other results
FI-GWTLNSAGYLLGKINLKALAALAKKIL-amide [Transportan]			Fluorescence in excised seedling tissues [1]: maximum florescence; Translocation by fluorimetric analysis compared with visual observation (immature embryos [2]): relatively greater translocation
FI-RKKRRQRRR-amide (fluorescein-RKKRRQRRR-NH2) [TAT-PTD]			Uptake of fluoresceinated peptide by isolated microspores (FIG. 2) (isolated microspores): can penetrate into cells; Uptake seen by fluorescence microscopy (FIG. 1) (immature embryos [3]; in the presence of cellular permeabilizing agent (toluene)): most significant uptake; also recorded: distinct layer of accumulation in the scutellum and localized accumulation in the germ area; Uptake seen by fluorescence microscopy (FIG. 1) (immature embryos [3]; without cellular permeabilizing agent): some fluorescence
RKKRRQRRRRKKRRQRRR (TAT2) [18 amino acid dimer of the PTD of HIV Tat, reference compound]	17.50		Highest numbers of embryos that showed GUS (Triticale microspores): 25.8%
RRIRRRLRRRPKPRRRRRRR [CPP17]	46.54	able to interact noncovalently with mCherry, subsequently delivering it inside the cells	
RRRRCTRRRTRSRRRPRR [CPP3]	57.63	able to interact noncovalently with mCherry, subsequently delivering it inside the cells	
RRRRRRRRHLRR [CPP34]	47.13	able to interact noncovalently with mCherry, subsequently delivering it inside the cells	
